Measurements as given in patent publication US20250231157A1, “METHOD FOR DETERMINING THE PARTITION OF NAPHTHENIC ACIDS FROM A PRODUCTION WATER MIMICKING SYSTEM AND MIMICKING SYSTEM” (PETRÓLEO BRASILEIRO S.A. – PETROBRAS, priority 2023, published 2025).
Where “and” joins values, the source holds several entries; their conditions need not be identical. Identical values can stand only once.

What was measured:
[1] = Control experiments: availability of the species in alkaline aqueous medium without using the reactor; assay type: physicochemical; details: acid solubilized directly in aqueous phase, no reactor
Procedure: Previously, the back titration procedure was internalized and optimized (Example 1), ensuring that the reproducibility of the measurements was adequate (standard deviation values below 10%, for example) and that the recoveries were close to what was expected based on the purity of the reagents (i.e., close to or above 90%). […] Control experiments were performed (measuring the availability of the species in an aqueous medium, without using the reactor) by solubilizing the organic acid directly in the aqueous phase and titrating a 10.0 mL aliquot; the same way, experiments were performed in the reactor based on the standardization of heptol and salinity already discussed (3.5%).

[2] = Partition equilibrium (migration to aqueous phase) heptol/water under pressure and temperature, central composite design, potentiometric titration; assay type: physicochemical; details: for Migration, Predicted: model value
Procedure: Three multivariate experimental designs (central composite designs) were performed in which the variables pressure (up to 1 MPa) and temperature (between 25° C. and 80° C.) were considered independent variables, with the migration of three acidic species as the response factor: benzoic, pentanoic and cyclohexanepentanoic acid. For this purpose, 5 levels were defined and gave rise to 10 experiments for each acidic species (Table 4), added to two control experiments (with higher pressure and temperature, as well as in the absence of pressure and at room temperature).
The experiments were performed with constant salinity of 3.5% (m·v^−1), constant heptol fraction (70:30, for heptane and toluene), and acidic species concentration of 0.03 M for benzoic and pentanoic acid, and 0.01 M for cyclohexanepentanoic acid. The results were evaluated with 95% confidence, using a response surface to estimate the maximum observable effect in each case, provided that the mathematical correlation was equal to or greater than R^2: 0.75.

[3] = Na2CO3 + NaHCO3 (3.48×10^−5 mol)
[4] = 20 °C, 0.1 MPa (experiment 12, control)
[5] = 38 °C, 0.25 MPa (experiment 1), heptol 70:30, 3.5% salinity
[6] = 52 °C, 0.5 MPa (experiments 9 and 10)
[7] = 52 °C, 0.5 MPa (experiments 9 and 10, centre point)
[8] = 80 °C, 1 MPa (experiment 11, control)

SMILES	Availability (reference value) [1, 3] [% mol]	Availability (reference value) ([1]; NaHCO3 (3.45×10^−5 mol)) [% mol]	Migration, Measured [2, 4]	Migration, Increment (related to control) ([2]; 25 °C, 0.5 MPa (experiment 5))	Migration, Measured ([2]; 25 °C, 0.5 MPa (experiment 5))	Migration, Increment (related to control) ([2]; 38 °C, 0.25 MPa (experiment 1))	Migration, Measured [2, 5]	Migration, Increment (related to control) ([2]; 38 °C, 0.75 MPa (experiment 3))	Migration, Measured ([2]; 38 °C, 0.75 MPa (experiment 3))	Migration, Increment (related to control) ([2]; 52 °C, 0.1 MPa (experiment 7))	Migration, Measured ([2]; 52 °C, 0.1 MPa (experiment 7))	Migration, Measured [2, 7]	Migration, Increment (related to control) ([2]; 52 °C, 1 MPa (experiment 8))	Migration, Measured ([2]; 52 °C, 1 MPa (experiment 8))	Migration, Increment (related to control) ([2]; 66 °C, 0.25 MPa (experiment 2))	Migration, Measured ([2]; 66 °C, 0.25 MPa (experiment 2))	Migration, Increment (related to control) ([2]; 66 °C, 0.75 MPa (experiment 4))	Migration, Measured ([2]; 66 °C, 0.75 MPa (experiment 4))	Migration, Increment (related to control) ([2]; 80 °C, 0.5 MPa (experiment 6))	Migration, Measured ([2]; 80 °C, 0.5 MPa (experiment 6))	also measured
O=C(O)c1ccccc1 [Benzoic Acid, benzoic acid]	72.2	83.1	57.0 %, mol	2.7 %, mol	58.6 %, mol	6.9 %, mol	61.0 %, mol	4.6 %, mol	59.7 %, mol	16.4 %, mol	66.4 %, mol	65.3 %, mol and 65.2 %, mol	16.8 %, mol	66.7 %, mol	21.2 %, mol	69.2 %, mol	19.8 %, mol	68.4 %, mol	27.9 %, mol	73.0 %, mol	Migration, Increment (related to control) [2, 6]: 14.5 %, mol and 14.3 %, mol; Migration, Increment (related to control) ([2]; 80 °C, 1 MPa (experiment 11)): 26.3 %, mol; Migration, Measured [2, 8]: 72.1 %, mol; Migration, Predicted ([2]; 25 °C, 0.5 MPa (experiment 5)): 57.5 %, mol; Migration, Predicted ([2]; 38 °C, 0.25 MPa (experiment 1)): 62.5 %, mol; Migration, Predicted ([2]; 38 °C, 0.75 MPa (experiment 3)): 62 %, mol; Migration, Predicted ([2]; 52 °C, 0.1 MPa (experiment 7)): 66.1 %, mol; Migration, Predicted [2, 6]: 66.6 %, mol; Migration, Predicted ([2]; 52 °C, 1 MPa (experiment 8)): 65.5 %, mol; Migration, Predicted ([2]; 66 °C, 0.25 MPa (experiment 2)): 69.8 %, mol; Migration, Predicted ([2]; 66 °C, 0.75 MPa (experiment 4)): 69.8 %, mol; Migration, Predicted ([2]; 80 °C, 0.5 MPa (experiment 6)): 72.7 %, mol; Migration, Predicted ([2]; 80 °C, 1 MPa (experiment 11)): 66.6 %, mol
O=C(O)CCCCC1CCCCC1 [Cyclohexanepentanoic Acid, cyclohexanepentanoic acid]	100	100	4.0 %, mol	−39.73 %, mol	2.4 %, mol	−42.22 %, mol	2.3 %, mol	104.3 %, mol	8.2 %, mol	−29.8 %, mol	2.8 %, mol	2.6 %, mol and 3.1 %, mol	76.99 %, mol	7.1 %, mol	−37.25 %, mol	2.5 %, mol	106.79 %, mol	8.3 %, mol	157.42 %, mol	10.3 %, mol	Migration, Increment (related to control) ([2]; 80 °C, 1 MPa (experiment 11)): −34.77 %, mol; Migration, Measured [2, 8]: 2.6 %, mol; Migration, Predicted ([2]; 25 °C, 0.5 MPa (experiment 5)): 4.0 %, mol; Migration, Predicted ([2]; 38 °C, 0.25 MPa (experiment 1)): 1.7 %, mol; Migration, Predicted ([2]; 38 °C, 0.75 MPa (experiment 3)): 5.1 %, mol; Migration, Predicted ([2]; 52 °C, 0.1 MPa (experiment 7)): 1.9 %, mol; Migration, Predicted [2, 6]: 3.5 %, mol; Migration, Predicted ([2]; 52 °C, 1 MPa (experiment 8)): 8.6 %, mol; Migration, Predicted ([2]; 66 °C, 0.25 MPa (experiment 2)): 4.4 %, mol; Migration, Predicted ([2]; 66 °C, 0.75 MPa (experiment 4)): 7.7 %, mol; Migration, Predicted ([2]; 80 °C, 0.5 MPa (experiment 6)): 9.3 %, mol; Migration, Predicted ([2]; 80 °C, 1 MPa (experiment 11)): 8.6 %, mol
CCCCC(=O)O [Pentanoic Acid, pentanoic acid]	66.0	90.7	86.6 %, mol	−10.8 %, mol	77.3 %, mol	−13.3 %, mol	75.1 %, mol	−12.2 %, mol	76.1 %, mol	−1.5 %, mol	85.3 %, mol	88.5 %, mol and 88.2 %, mol	3.1 %, mol	89.4 %, mol	−4.1 %, mol	83.1 %, mol	−5.2 %, mol	82.2 %, mol	0.5 %, mol	87.1 %, mol	Migration, Increment (related to control) [2, 6]: 2.2 %, mol and 1.8 %, mol; Migration, Increment (related to control) ([2]; 80 °C, 1 MPa (experiment 11)): 2.5 %, mol; Migration, Measured [2, 8]: 88.8 %, mol; Migration, Predicted ([2]; 25 °C, 0.5 MPa (experiment 5)): 74.2 %, mol; Migration, Predicted ([2]; 38 °C, 0.25 MPa (experiment 1)): 79.9 %, mol; Migration, Predicted ([2]; 38 °C, 0.75 MPa (experiment 3)): 82.2 %, mol; Migration, Predicted ([2]; 52 °C, 0.1 MPa (experiment 7)): 83.6 %, mol; Migration, Predicted [2, 6]: 85.4 %, mol; Migration, Predicted ([2]; 52 °C, 1 MPa (experiment 8)): 86.3 %, mol; Migration, Predicted ([2]; 66 °C, 0.25 MPa (experiment 2)): 86.5 %, mol; Migration, Predicted ([2]; 66 °C, 0.75 MPa (experiment 4)): 86.9 %, mol; Migration, Predicted ([2]; 80 °C, 0.5 MPa (experiment 6)): 85.5 %, mol; Migration, Predicted ([2]; 80 °C, 1 MPa (experiment 11)): 85.4 %, mol; Decrease in the tendency to migrate relative to control, maximum over the design ([2]; pressure up to 1 MPa, 25-80 °C): up to 13.3 % mol; Increase in migration relative to control, maximum over the design ([2]; pressure up to 1 MPa, 25-80 °C): up to 3.1 % mol
